Laboratory results: paper PMC6680768, “Synthesis and Preclinical Evaluation of Radio-Iodinated GRPR/PSMA Bispecific Heterodimers for the Theranostics Application in Prostate Cancer” (Pharmaceutics, 2019)

Legend:
[1] = target: T1, PSMA (Homo sapiens, UniProt Q04609); set-up: method as in PMID 25883127; conditions: cited from earlier work
T1 construct: host or cells: PC-3pip (PC-3 cells transfected with PSMA)

[2] = target: T1, PSMA; test: Binding inhibition of [^111In]In-PSMA-617 on PC-3pip cells, GRPRs blocked (IC50); conditions: competitor 1 nM [^111In]In-PSMA-617, GRPRs blocked with 200 nM RM26, 4 °C, 5 h, non-iodinated heterodimers
Method: Cells were incubated at 4 °C for 5 h. After incubation, the cells were detached with trypsin–EDTA and the activity in cell samples was measured. Data were plotted using nonlinear regression.

[3] = assay type: physicochemical
Method: The octanol–water distribution coefficient was determined as described earlier. Briefly, 500 µL of Milli-Q water and 500 µL of n-octanol were added in an Eppendorf tube containing radiolabeled peptide. The tube was vortexed for 2 min and centrifuged for 20 s. Fractions of each phase were collected and their activity was measured.

[4] = system: PC-3pip cells (GRPR and PSMA positive); test: Cellular retention of activity after interrupted incubation, PC-3pip cells; assay type: cell-based; conditions: 24 h
Method: (§1) The cellular retention of activity after interrupted incubation was carried out on PC-3, LNCaP, and PC-3pip cells. A concentration of 20 nM of each radiolabeled heterodimer was added to the cells and the dishes were incubated at 4 °C for 2 h. The media was aspired, and the cells were further incubated with complete media at 37 °C. At predetermined time points, the media was collected, and the cells were detached with trypsin–EDTA and collected. The radioactivity content of each collected fraction was measured.

[5] = system: PC-3 cells (GRPR positive); test: Cellular retention of activity after interrupted incubation, PC-3 cells; assay type: cell-based; conditions: 24 h of incubation, normalized to 0 h
Method: as §1

[6] = system: LNCaP cells (PSMA positive); test: Cellular retention of activity after interrupted incubation, LNCaP cells; assay type: cell-based; conditions: 24 h
Method: as §1

[7] = set-up: species or system Balb/c nu/nu mice; conditions: mouse, in vivo
Method: (§2) The radioactivity uptake in organs was studied 1, 3, 24, and 72 h pi as described above.

[8] = system: PC-3pip (GRPR and PSMA positive) xenografts; set-up: species or system Balb/c nu/nu mice; conditions: mouse, in vivo
Method: as §2

[9] = system: PSMA; conditions: LNCaP xenografts, 1 h pi, p < 0.05
Method: All in vivo experiments were carried out on BALB/c nu/nu mice provided by Scanbur A/S (Sweden). PC-3, LNCaP, and PC-3pip tumor xenografts were established by implanting 5 × 10^6 cells/mouse for PC-3 and PC-3pip xenografts, and 10 × 10^6 cells for LNCaP xenografts. The in vivo experiments were carried out when palpable tumors were observed. Animal weight at the moment of experiment was 20 ± 2 g, 21 ± 3 g, 14.5 ± 0.8 g, and average tumor size was 0.2 ± 0.1 g, 0.05 ± 0.04 g, 0.4 ± 0.1 g for PC-3, LNCaP, and PC-3pip models, respectively.
In vivo specificity for the radiolabeled heterodimers was tested on mice bearing PC-3 or LNCaP xenografts. The mice were injected with 40 pmol (30 KBq) of the radiolabeled heterodimer in 1% bovine serum albumin (BSA) in PBS. For the mice in the blocked group, 7.5 nmol of either unlabeled NOTA-PEG4-RM26 or PSMA-617 was added to the radiolabeled heterodimer in order to block GRPR in PC-3 xenografted mice or PSMA in LNCaP xenografted mice, respectively. Animals were sacrificed by heart punctures exsanguination after pre-injection of Ketalar–Rompun solution (10 mg/mL Ketalar and 1 mg/mL Rompun; 20 μL solution/gram of body weight). The mice were dissected 1 h post-injection (pi) and the organs of interest were collected. The activity uptake in organs was measured.

T1 sequence (Q04609 whole entry): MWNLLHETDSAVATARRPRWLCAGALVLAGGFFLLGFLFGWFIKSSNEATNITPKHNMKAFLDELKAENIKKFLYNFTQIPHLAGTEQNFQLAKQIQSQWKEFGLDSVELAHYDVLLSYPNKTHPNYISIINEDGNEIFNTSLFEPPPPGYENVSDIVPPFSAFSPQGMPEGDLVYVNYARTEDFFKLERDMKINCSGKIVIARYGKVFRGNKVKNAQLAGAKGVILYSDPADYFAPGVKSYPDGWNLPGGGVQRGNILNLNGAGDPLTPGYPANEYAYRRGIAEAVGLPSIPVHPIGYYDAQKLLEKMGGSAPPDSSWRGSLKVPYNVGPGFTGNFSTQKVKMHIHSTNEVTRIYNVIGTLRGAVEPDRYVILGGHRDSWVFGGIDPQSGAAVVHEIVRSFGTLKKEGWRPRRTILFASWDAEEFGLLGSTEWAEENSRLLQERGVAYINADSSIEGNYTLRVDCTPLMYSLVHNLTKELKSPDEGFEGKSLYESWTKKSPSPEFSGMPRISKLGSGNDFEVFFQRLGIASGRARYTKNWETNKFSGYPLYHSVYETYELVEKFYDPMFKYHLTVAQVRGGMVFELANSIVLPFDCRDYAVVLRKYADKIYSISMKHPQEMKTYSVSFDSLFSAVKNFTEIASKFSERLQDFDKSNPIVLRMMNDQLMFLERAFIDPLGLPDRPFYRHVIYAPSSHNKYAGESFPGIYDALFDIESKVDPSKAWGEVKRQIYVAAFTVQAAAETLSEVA

| SMILES | IC50 [2] [nM] | logD [3] | decrease of cell-associated activity [4] [%] | difference in tumor activity uptake between non-blocked and blocked groups (in vivo specificity to PSMA) [9] | also measured |
| --- | --- | --- | --- | --- | --- |
| O=C([O-])CN1CCN(CC(=O)[O-])CCN(CC(=O)NCC2CCC(C(=O)N[C@@H](Cc3ccc4ccccc4c3)C(=O)NCCCC[C@H](NC(=O)N[C@@H](CCC(=O)O)C(=O)O)C(=O)O)CC2)CCN(CC(=O)[O-])CC1.[177Lu+3] (some centres unmarked) [^177Lu-PSMA-617] | – | – | – | – | initial uptake in kidneys versus tumors [1]: at least 10 fold |
| CC(C)C[C@H](NC(=O)C[C@H](O)[C@H](CC(C)C)NC(=O)[C@H](Cc1c[nH]cn1)NC(=O)CNC(=O)[C@@H](NC(=O)[C@H](C)NC(=O)[C@H](Cc1c[nH]c2ccccc12)NC(=O)[C@H](CCC(N)=O)NC(=O)[C@@H](Cc1ccccc1)NC(=O)CCOCCOCCNC(=O)[C@H](Cc1ccc(O)c(I)c1)n1cc(COCCOCCC(=O)NC[C@H]2CC[C@H](C(=O)N[C@@H](Cc3ccc4ccccc4c3)C(=O)NCCCC[C@H](NC(=O)N[C@@H](CCC(=O)O)C(=O)O)C(=O)O)CC2)nn1)C(C)C)C(N)=O [[^125I]I-BO530] | – | -0.52 | 20 | demonstrated significant difference | cell-associated activity [5]: 14% ± 2%; cell associated activity from initial [6]: 60%; tissue uptake at 24 h [7]: < 1 %ID/g; area under the curve (AUC), kidneys versus tumors [8]: more than two-fold higher; area under the curve (AUC), tumor versus blood [8]: 10 fold |
| CC(C)C[C@H](NC(=O)C[C@H](O)[C@H](CC(C)C)NC(=O)[C@H](Cc1c[nH]cn1)NC(=O)CNC(=O)[C@@H](NC(=O)[C@H](C)NC(=O)[C@H](Cc1c[nH]c2ccccc12)NC(=O)[C@H](CCC(N)=O)NC(=O)[C@@H](Cc1ccccc1)NC(=O)CCOCCOCCNC(=O)[C@H](Cc1ccc(O)c(I)c1)n1cc(CCCCCCCC(=O)NC[C@H]2CC[C@H](C(=O)N[C@@H](Cc3ccc4ccccc4c3)C(=O)NCCCC[C@H](NC(=O)N[C@@H](CCC(=O)O)C(=O)O)C(=O)O)CC2)nn1)C(C)C)C(N)=O [[^125I]I-BO535] | – | 1.07 | 35 | failed to demonstrate in vivo specificity | – |

Continued, in another order:

| IC50 [2] [nM] | logD [3] | SMILES | decrease of cell-associated activity [4] [%] | difference in tumor activity uptake between non-blocked and blocked groups (in vivo specificity to PSMA) [9] | also measured |
| --- | --- | --- | --- | --- | --- |
| 98 ± 13 | – | CC(C)C[C@H](NC(=O)C[C@H](O)[C@H](CC(C)C)NC(=O)[C@H](Cc1c[nH]cn1)NC(=O)CNC(=O)[C@@H](NC(=O)[C@H](C)NC(=O)[C@H](Cc1c[nH]c2ccccc12)NC(=O)[C@H](CCC(N)=O)NC(=O)[C@@H](Cc1ccccc1)NC(=O)CCOCCOCCNC(=O)[C@H](Cc1ccc(O)cc1)n1cc(COCCOCCC(=O)NC[C@H]2CC[C@H](C(=O)N[C@@H](Cc3ccc4ccccc4c3)C(=O)NCCCC[C@H](NC(=O)N[C@@H](CCC(=O)O)C(=O)O)C(=O)O)CC2)nn1)C(C)C)C(N)=O [BO530] | – | – | – |
| 100 ± 10 | – | CC(C)C[C@H](NC(=O)C[C@H](O)[C@H](CC(C)C)NC(=O)[C@H](Cc1c[nH]cn1)NC(=O)CNC(=O)[C@@H](NC(=O)[C@H](C)NC(=O)[C@H](Cc1c[nH]c2ccccc12)NC(=O)[C@H](CCC(N)=O)NC(=O)[C@@H](Cc1ccccc1)NC(=O)CCOCCOCCNC(=O)[C@H](Cc1ccc(O)cc1)n1cc(CCCCCCCC(=O)NC[C@H]2CC[C@H](C(=O)N[C@@H](Cc3ccc4ccccc4c3)C(=O)NCCCC[C@H](NC(=O)N[C@@H](CCC(=O)O)C(=O)O)C(=O)O)CC2)nn1)C(C)C)C(N)=O [BO535] | – | – | – |
